Measurements published in ChEMBL document CHEMBL5518235, “Identification of Novel Series of Potent and Selective Relaxin Family Peptide Receptor 1 (RXFP1) Agonists” (J Med Chem, 2024).
pEC50: −log10 of the molar value.

Columns and labels:
[1] = Lipophilicity, logD of the compound in 1-octanol and phosphate buffer at pH 7.4 incubated for 3 hrs by shake flask method based LC/MS/MS analysis; type: physicochemical; details: 1-octanol/phosphate buffer, pH 7.4
Relaxin receptor 1 = target: T1, Relaxin receptor 1 (Homo sapiens, UniProt Q9HBX9); assay: Agonist activity at human RXFP1 expressed in T-Rex-CHO-K1 cells assessed as stimulation of cAMP production incubated for 45 mins by HTRF assay; type: functional, cell-based
T1 sequence (Q9HBX9 whole entry): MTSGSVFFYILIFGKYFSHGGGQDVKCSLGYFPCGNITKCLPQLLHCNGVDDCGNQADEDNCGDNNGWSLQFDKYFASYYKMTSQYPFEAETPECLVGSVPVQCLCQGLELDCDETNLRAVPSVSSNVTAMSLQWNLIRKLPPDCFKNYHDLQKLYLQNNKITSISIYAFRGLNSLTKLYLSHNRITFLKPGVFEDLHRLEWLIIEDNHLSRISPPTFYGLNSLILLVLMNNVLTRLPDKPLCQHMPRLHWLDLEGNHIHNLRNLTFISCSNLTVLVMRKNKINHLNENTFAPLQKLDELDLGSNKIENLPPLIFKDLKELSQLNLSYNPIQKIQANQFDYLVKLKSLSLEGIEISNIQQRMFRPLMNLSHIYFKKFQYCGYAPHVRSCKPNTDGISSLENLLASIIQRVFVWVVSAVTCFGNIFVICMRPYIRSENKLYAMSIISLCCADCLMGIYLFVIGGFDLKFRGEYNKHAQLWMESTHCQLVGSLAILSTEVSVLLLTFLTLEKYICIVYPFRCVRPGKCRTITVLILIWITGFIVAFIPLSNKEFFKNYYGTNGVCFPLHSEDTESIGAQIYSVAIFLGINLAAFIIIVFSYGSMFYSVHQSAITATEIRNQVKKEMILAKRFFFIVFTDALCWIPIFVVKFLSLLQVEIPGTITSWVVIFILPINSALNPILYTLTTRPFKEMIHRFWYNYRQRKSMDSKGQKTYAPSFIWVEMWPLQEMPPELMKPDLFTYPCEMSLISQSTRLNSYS

[2] = target: T2, Relaxin receptor 1 (Homo sapiens) (UniProt Q9HBX9); assay: Agonist activity at human RXFP1 expressed in T-Rex-CHO-K1 cells assessed as stimulation of cAMP production by measuring maximal efficacy at 50 uM incubated for 45 mins by HTRF assay relative to control; type: functional, cell-based
T2 sequence (whole entry): T1 sequence (Q9HBX9 whole entry)

[3] = Metabolic stability in cryopreserved human hepatocytes assessed as intrinsic clearance measured per 10^6 cells at 1 uM after 120 mins by LC-MS/MS analysis; type: ADME, cell-based, Hepatocyte; details: cryopreserved hepatocytes, read-out: CLH
[4] = Metabolic stability in cryopreserved human hepatocytes assessed as unbound intrinsic clearance measured per 10^6 cells at 1 uM measured after 120 mins by LC-MS/MS analysis; type: ADME, cell-based, Hepatocyte; details: 2 h
[5] = Metabolic stability in human liver microsomes assessed as intrinsic clearance at 1 uM incubated for 30 mins in presence of NADPH by LC-MS/MS analysis; type: ADME, Microsome; details: liver microsomes, read-out: CLH
[6] = Metabolic stability in human liver microsomes assessed as unbound intrinsic clearance at 1 uM incubated for 30 mins in presence of NADPH by LC-MS/MS analysis; type: ADME, Microsome; details: 0.5 h

| SMILES | logD at 3 h [1] | pEC50 (Relaxin receptor 1) | Emax ([2]; filed as agonist) | hepatocyte CLint at 1 µM [3] | CL free [4] | microsomal CLint at 1 µM [5] | Emax [2] | CL free [6] |
| --- | --- | --- | --- | --- | --- | --- | --- | --- |
| COc1cc(F)c(O[C@H]2CC[C@@H](C(=O)O)CC2)cc1C(=O)N[C@@H]1[C@H](C(=O)Nc2ccc(F)c(C(F)(F)F)c2)[C@H]2C=C[C@@H]1C2 | 3.6 | 5.59 | 107% | 4.8 µL/min/1e6 cells | 42 µL/min | – | – | – |
| COc1cc(F)c(O[C@H]2CC[C@@H](C(=O)O)CC2)cc1C(=O)N[C@H]1[C@@H](C(=O)Nc2ccc(F)c(S(=O)(=O)C(F)(F)F)c2)[C@@H]2C=C[C@H]1C2 | – | 7.80 | 114% | 7.5 µL/min/1e6 cells | 32 µL/min | – | – | – |
| COc1cc(F)c(OCCCC(=O)O)cc1C(=O)N[C@H]1[C@@H](C(=O)Nc2cccc(S(=O)(=O)C(F)(F)F)c2)[C@@H]2C=C[C@H]1C2 (racemic) | 2.5 | 5.80 | 114% | 13 µL/min/1e6 cells | 51 µL/min | – | – | – |
| COc1cc(F)c(O[C@H]2CC[C@](C)(C(=O)O)CC2)cc1C(=O)N[C@@H]1[C@H]2CC[C@H](C2)[C@@H]1C(=O)Nc1cccc(S(=O)(=O)C(F)(F)F)c1 | 4.2 | 7.00 | 103% | 10 µL/min/1e6 cells | 222 µL/min | – | – | – |
| COc1ccccc1C(=O)N[C@H]1[C@@H](C(=O)Nc2cccc(S(=O)(=O)C(F)(F)F)c2)[C@H]2C=C[C@@H]1C2 (racemic) | 3.5 | < 4.30 | – | – | – | 140 µL/min/mg | 37% | 0.35 10^3uL/min/mg |
| COc1cc(F)c(F)cc1C(=O)N[C@@H]1[C@H](C(=O)Nc2cccc(S(=O)(=O)C(F)(F)F)c2)[C@H]2C=C[C@@H]1C2 (racemic) | > 4.2 | 6.10 | 109% | – | – | > 300 µL/min/mg | – | > 25 10^3uL/min/mg |
| COc1cc(F)c(-c2ccc(C(=O)O)cc2)cc1C(=O)N[C@H]1[C@@H](C(=O)Nc2cccc(S(=O)(=O)C(F)(F)F)c2)[C@@H]2C=C[C@H]1C2 | – | – | 99% | – | – | – | – | – |
| COc1cc(F)c(Oc2ccc(C(=O)O)cc2)cc1C(=O)N[C@H]1[C@@H](C(=O)Nc2cccc(S(=O)(=O)C(F)(F)F)c2)[C@@H]2C=C[C@H]1C2 (racemic) | 3.6 | 6.50 | 103% | 7.2 µL/min/1e6 cells | 480 µL/min | – | – | – |
| COc1ccccc1C(=O)N[C@@H]1[C@H](C(=O)Nc2cccc(S(=O)(=O)C(F)(F)F)c2)[C@H]2C=C[C@@H]1C2 (racemic) | 4.9 | 5.50 | 100% | – | – | 300 µL/min/mg | – | 12 10^3uL/min/mg |
| COc1cc(F)c(O[C@H]2CC[C@@](C)(C(=O)O)CC2)cc1C(=O)N[C@@H]1C[C@@H](OC)C[C@@H]1C(=O)Nc1cccc(S(=O)(=O)C(F)(F)F)c1 | 3 | 7.60 | 110% | 6.2 µL/min/1e6 cells | 26 µL/min | – | – | – |
| COc1cc(F)ccc1C(=O)N[C@@H]1[C@H](C(=O)Nc2cccc(S(=O)(=O)C(F)(F)F)c2)[C@H]2C=C[C@@H]1C2 (racemic) | > 3 | 5.80 | 113% | – | – | > 300 µL/min/mg | – | > 14 10^3uL/min/mg |
| COc1cc(F)c(O[C@H]2CC[C@H](C(=O)O)CC2)cc1C(=O)N[C@H]1[C@@H](C(=O)Nc2cccc(S(=O)(=O)C(F)(F)F)c2)[C@@H]2C=C[C@H]1C2 | 3 | 5.70 | 81% | 8.4 µL/min/1e6 cells | 84 µL/min | – | – | – |
| COc1ccc(-c2cccnc2)cc1C(=O)N[C@@H]1[C@H](C(=O)Nc2cccc(S(=O)(=O)C(F)(F)F)c2)[C@H]2C=C[C@@H]1C2 (racemic) | 4.7 | 5.76 | 87% | – | – | > 300 µL/min/mg | – | > 38 10^3uL/min/mg |
| COc1cc(F)c(O[C@H]2CC[C@@](C)(C(=O)O)CC2)cc1C(=O)N[C@@H]1COC[C@@H]1C(=O)Nc1cccc(S(=O)(=O)C(F)(F)F)c1 | 2.6 | 6.90 | 104% | 6.3 µL/min/1e6 cells | 23 µL/min | – | – | – |
| COc1cc(F)c(O[C@H]2CC[C@@H](C(=O)O)CC2)cc1C(=O)N[C@H]1[C@@H](C(=O)Nc2cccc(S(=O)(=O)C(F)(F)F)c2)[C@@H]2C=C[C@H]1C2 | 3.25 | 7.20 | 109% | 11 µL/min/1e6 cells | 100 µL/min | – | – | – |
| COc1cc(F)c(-c2ncc(C(=O)O)s2)cc1C(=O)N[C@H]1[C@@H](C(=O)Nc2cccc(S(=O)(=O)C(F)(F)F)c2)[C@@H]2C=C[C@H]1C2 (racemic) | 1.7 | 6.20 | 111% | – | – | 13 µL/min/mg | – | 65 µL/min/mg |
| COc1cc(F)c(OCCCCC(=O)O)cc1C(=O)N[C@H]1[C@@H](C(=O)Nc2cccc(S(=O)(=O)C(F)(F)F)c2)[C@@H]2C=C[C@H]1C2 (racemic) | 2.9 | 6.60 | 119% | 16 µL/min/1e6 cells | 89 µL/min | – | – | – |
| COc1cc(F)c(O[C@H]2CC[C@@H](C(=O)O)CC2)cc1C(=O)N[C@@H]1[C@H]2CC[C@H](C2)[C@@H]1C(=O)Nc1ccccc1 | 2.5 | 5.10 | 98% | 7.6 µL/min/1e6 cells | 25 µL/min | – | – | – |
| COc1ccccc1C(=O)N[C@@H]1CCC[C@@H]1C(=O)Nc1cccc(S(=O)(=O)C(F)(F)F)c1 (racemic) | 4.9 | < 4.30 | 74% | – | – | 174 µL/min/mg | – | 2.4 10^3uL/min/mg |
| COc1cc(F)c(O[C@H]2CC[C@@H](C(=O)O)CC2)cc1C(=O)N[C@@H]1[C@H]2CC[C@H](C2)[C@@H]1C(=O)Nc1ccncc1 | 1.6 | < 4.30 | 42% | – | – | – | – | – |
| COc1cc(F)c(-c2ccccc2)cc1C(=O)N[C@@H]1[C@H](C(=O)Nc2cccc(S(=O)(=O)C(F)(F)F)c2)[C@H]2C=C[C@@H]1C2 (racemic) | > 3.9 | 6.04 | 93% | – | – | 110 µL/min/mg | – | 92 10^3uL/min/mg |
| COc1cc(F)c(O[C@H]2CC[C@@H](C(=O)O)CC2)cc1C(=O)N[C@H]1[C@H](C(=O)Nc2ccc(F)c(C(F)(F)F)c2)[C@@H]2C=C[C@H]1C2 | 3.5 | 5.40 | 91% | 10 µL/min/1e6 cells | 91 µL/min | – | – | – |
| COc1cc(F)c(C(=O)N2CCC(C)(C(=O)O)CC2)cc1C(=O)N[C@H]1[C@@H](C(=O)Nc2cccc(S(=O)(=O)C(F)(F)F)c2)[C@@H]2C=C[C@H]1C2 (racemic) | 1.9 | 5.50 | 111% | 3 µL/min/1e6 cells | 6.3 µL/min | – | – | – |
| COc1cc(F)c(O[C@H]2CC[C@@](C)(C(=O)O)CC2)cc1C(=O)N[C@@H]1[C@H]2CC[C@H](C2)[C@@H]1C(=O)Nc1cccc(S(=O)(=O)C(F)(F)F)c1 | 4.15 | 8.70 | 109% | 15 µL/min/1e6 cells | 306 µL/min | – | – | – |
| COc1cnc(-c2ccc(C(=O)O)cc2)cc1C(=O)N[C@H]1[C@@H](C(=O)Nc2cccc(S(=O)(=O)C(F)(F)F)c2)[C@@H]2C=C[C@H]1C2 (racemic) | 2.3 | 5.40 | 117% | – | – | 7 µL/min/mg | – | 19 µL/min/mg |
| COc1cc(F)c(O[C@H]2CC[C@@H](C(=O)O)CC2)cc1C(=O)N[C@@H]1[C@H]2CC[C@H](C2)[C@@H]1C(=O)Nc1cccc(C(F)F)c1 | 2.8 | – | 104% | 11 µL/min/1e6 cells | 51 µL/min | – | – | – |
| COc1cc(F)c(O[C@H]2CC[C@@](C)(C(=O)O)CC2)cc1C(=O)N[C@@H]1CCC[C@@H]1C(=O)Nc1ccc(F)c(S(F)(F)(F)(F)F)c1 | 4.35 | 8.50 | 105% | 13 µL/min/1e6 cells | 283 µL/min | – | – | – |
